In ChEMBL document CHEMBL1201862, “PubChem BioAssay data set” (2004):
Where a name gives a salt, the structure may show the parent alone.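 Test compounds were applied to cells in 96-well plates for 48 hours at 5 doses. GI50: concentration for 50% inhibition of growth.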 Calls of active or inactive are those of the source. Rule as the data show it: active = GI50 up to about 1.1 µM and inactive = higher.

Key:
Test in all cases: NCI-60 cell line screen, 48 h
[1] = tested on: CCRF-CEM
[2] = tested on: NCI-H23
[3] = tested on: KM12
[4] = tested on: NCI-H522
[5] = tested on: COLO 205
[6] = tested on: ACHN
[7] = tested on: UACC-257
[8] = tested on: SNB-19
[9] = tested on: M14
[10] = tested on: SK-MEL-5
[11] = tested on: MOLT-4
[12] = tested on: SNB-75
[13] = tested on: EKVX
[14] = tested on: MCF7
[15] = tested on: SF-295
[16] = tested on: UACC-62
[17] = tested on: HCC 2998
[18] = tested on: NCI/ADR-RES
[19] = tested on: HOP-62
[20] = tested on: HOP-92

**Q.** `O=C1c2cccc3cccc(c23)C(=O)N1CCCNCCCCNCCCNCCCN1C(=O)c2cccc3cccc(c23)C1=O` [BISNAPHTHALIMIDOPROPYL SPERMIDINE TRIHYDROBROMIDE] was tested. Which GI50 [1] did it give?
**A.** 111 nM (active)

**Q.** And the GI50 [2]?
**A.** 350 nM (active)

**Q.** What about the GI50 [3] of the same molecule?
**A.** 556 nM (active)

**Q.** What about the GI50 [4] of the same molecule?
**A.** 85.9 nM (active)

**Q.** And the GI50 [5]?
**A.** 348 nM (active)

**Q.** And the GI50 [6]?
**A.** 1220 nM (inactive)

**Q.** What about the GI50 [7] of the same molecule?
**A.** 1560 nM (inactive)

**Q.** And the GI50 [8]?
**A.** 403 nM (active)

**Q.** And the GI50 [9]?
**A.** 1520 nM (inactive)

**Q.** What about the GI50 [10] of the same molecule?
**A.** 2020 nM (inactive)

**Q.** What about the GI50 [11] of the same molecule?
**A.** 33.3 nM (active)

**Q.** What about the GI50 [12] of the same molecule?
**A.** 319 nM (active)

**Q.** What about the GI50 [13] of the same molecule?
**A.** 1180 nM (inactive)

**Q.** And the GI50 [14]?
**A.** 34.3 nM (active)

**Q.** What about the GI50 [15] of the same molecule?
**A.** 5920 nM (inactive)

**Q.** And the GI50 [16]?
**A.** 458 nM (active)

**Q.** And the GI50 [17]?
**A.** 586 nM (active)

**Q.** And the GI50 [18]?
**A.** 19900 nM (inactive)

**Q.** What about the GI50 [19] of the same molecule?
**A.** 1100 nM (active)

**Q.** What about the GI50 [20] of the same molecule?
**A.** 935 nM (active)

**Q.** For `CC(C)=C1CCC(CN2CCOCC2)C1=O` (stereo not given), which GI50 [1] is on record?
**A.** 2490 nM (inactive)

**Q.** And the GI50 [2]?
**A.** 17700 nM (inactive)

**Q.** And the GI50 [3]?
**A.** 29400 nM (inactive)

**Q.** What about the GI50 [4] of the same molecule?
**A.** 45.4 nM (active)

**Q.** What about the GI50 [5] of the same molecule?
**A.** 4660 nM (inactive)

**Q.** What about the GI50 [6] of the same molecule?
**A.** 9840 nM (inactive)

**Q.** What about the GI50 [7] of the same molecule?
**A.** 16200 nM (inactive)

**Q.** What about the GI50 [8] of the same molecule?
**A.** 60500 nM (inactive)

**Q.** And the GI50 [9]?
**A.** 3520 nM (inactive)

**Q.** And the GI50 [10]?
**A.** 15900 nM (inactive)

**Q.** What about the GI50 [11] of the same molecule?
**A.** 2340 nM (inactive)

**Q.** What about the GI50 [12] of the same molecule?
**A.** 4720 nM (inactive)

**Q.** And the GI50 [13]?
**A.** 17700 nM (inactive)

**Q.** And the GI50 [14]?
**A.** 4140 nM (inactive)

**Q.** And the GI50 [15]?
**A.** 98400 nM (inactive)

**Q.** What about the GI50 [16] of the same molecule?
**A.** 17000 nM (inactive)

**Q.** What about the GI50 [17] of the same molecule?
**A.** 15400 nM (inactive)

**Q.** And the GI50 [18]?
**A.** 13300 nM (inactive)

**Q.** And the GI50 [19]?
**A.** > 55500 nM (inactive)

**Q.** And the GI50 [20]?
**A.** 3950 nM (inactive)

**Q.** `Cc1ccc(C(=O)/C=C(O)/C(O)=C/C(=O)c2ccc(C)cc2C)c(C)c1` was tested. Which GI50 [1] did it give?
**A.** 175 nM (active)

**Q.** What about the GI50 [2] of the same molecule?
**A.** 1650 nM (inactive)

**Q.** What about the GI50 [3] of the same molecule?
**A.** 1880 nM (inactive)

**Q.** And the GI50 [4]?
**A.** 1640 nM (inactive)

**Q.** What about the GI50 [5] of the same molecule?
**A.** 1820 nM (inactive)

**Q.** What about the GI50 [6] of the same molecule?
**A.** 1840 nM (inactive)

**Q.** And the GI50 [7]?
**A.** 1710 nM (inactive)

**Q.** And the GI50 [8]?
**A.** 2490 nM (inactive)

**Q.** What about the GI50 [9] of the same molecule?
**A.** 1930 nM (inactive)

**Q.** And the GI50 [10]?
**A.** 1750 nM (inactive)

**Q.** And the GI50 [11]?
**A.** 1980 nM (inactive)

**Q.** What about the GI50 [12] of the same molecule?
**A.** 1950 nM (inactive)

**Q.** And the GI50 [13]?
**A.** 2340 nM (inactive)

**Q.** What about the GI50 [14] of the same molecule?
**A.** 2020 nM (inactive)

**Q.** And the GI50 [15]?
**A.** 1750 nM (inactive)

**Q.** What about the GI50 [16] of the same molecule?
**A.** 1790 nM (inactive)

**Q.** What about the GI50 [17] of the same molecule?
**A.** 1920 nM (inactive)

**Q.** And the GI50 [18]?
**A.** 1920 nM (inactive)

**Q.** And the GI50 [19]?
**A.** 1580 nM (inactive)

**Q.** What about the GI50 [20] of the same molecule?
**A.** 2900 nM (inactive)

**Q.** How did the GI50 [1] turn out when `CC(/C=N/N=C1NCCCN1)=N\N=C1NCCCN1` was run?
**A.** > 100000 nM (inactive)

**Q.** What about the GI50 [2] of the same molecule?
**A.** > 100000 nM (inactive)

**Q.** And the GI50 [3]?
**A.** > 100000 nM (inactive)

**Q.** What about the GI50 [4] of the same molecule?
**A.** > 100000 nM (inactive)

**Q.** And the GI50 [5]?
**A.** > 100000 nM (inactive)

**Q.** And the GI50 [6]?
**A.** > 100000 nM (inactive)

**Q.** And the GI50 [7]?
**A.** > 100000 nM (inactive)

**Q.** What about the GI50 [8] of the same molecule?
**A.** > 100000 nM (inactive)

**Q.** And the GI50 [9]?
**A.** > 100000 nM (inactive)

**Q.** And the GI50 [10]?
**A.** > 100000 nM (inactive)

**Q.** What about the GI50 [11] of the same molecule?
**A.** > 100000 nM (inactive)

**Q.** What about the GI50 [12] of the same molecule?
**A.** > 100000 nM (inactive)

**Q.** And the GI50 [13]?
**A.** > 100000 nM (inactive)

**Q.** And the GI50 [14]?
**A.** > 100000 nM (inactive)

**Q.** And the GI50 [15]?
**A.** > 100000 nM (inactive)

**Q.** What about the GI50 [16] of the same molecule?
**A.** > 100000 nM (inactive)

**Q.** And the GI50 [17]?
**A.** > 100000 nM (inactive)

**Q.** What about the GI50 [18] of the same molecule?
**A.** > 100000 nM (inactive)

**Q.** What about the GI50 [19] of the same molecule?
**A.** > 100000 nM (inactive)

**Q.** What about the GI50 [20] of the same molecule?
**A.** 40200 nM (inactive)
